These results are taken from patent US8575163B2, “Pyrrolopyridinylpyrimidin-2-ylamine derivatives” (Merck Patent GmbH, priority 2009, dated 2013).

One assay concerns the target T1, PDK1 (Homo sapiens, UniProt O15530).
T1 construct: His6 (N)
T1 sequence (O15530 51-556 limits assumed): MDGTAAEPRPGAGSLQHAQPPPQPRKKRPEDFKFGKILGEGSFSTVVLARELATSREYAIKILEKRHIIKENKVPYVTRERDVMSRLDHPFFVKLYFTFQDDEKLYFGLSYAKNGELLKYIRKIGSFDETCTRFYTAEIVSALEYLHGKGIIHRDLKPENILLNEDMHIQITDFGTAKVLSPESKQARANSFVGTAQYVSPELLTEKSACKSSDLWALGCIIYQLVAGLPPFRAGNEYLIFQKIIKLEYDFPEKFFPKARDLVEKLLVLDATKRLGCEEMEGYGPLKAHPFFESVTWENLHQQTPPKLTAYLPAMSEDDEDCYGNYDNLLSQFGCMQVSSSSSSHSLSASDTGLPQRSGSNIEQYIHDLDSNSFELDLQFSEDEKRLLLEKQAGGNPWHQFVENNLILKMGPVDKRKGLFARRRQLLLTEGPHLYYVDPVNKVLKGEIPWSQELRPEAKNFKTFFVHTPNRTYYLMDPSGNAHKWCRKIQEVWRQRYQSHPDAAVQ
The assay is described as follows: Test for the inhibition of PDK1 (flashplate, 33P-ATP). It counts as biochemical. As to conditions: His6-PDK1 3.4 nM, 4 μM ATP, 30° C., 60 min. The procedure, abridged:
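His6-PDK1(1-50) (3.4 nM) and a biotinylated peptide substrate (400 nM) were incubated 60 min at 30° C with 4 μM ATP containing ^33P-ATP and test compound. Incorporated radioactivity was counted after subtracting a 100 nM staurosporine blank and expressed as % of control; IC50 derived from these.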

For assay [1], the system named is PDK1 kinase activity (phospho-T308-PKB) in PC3 cells. As to the kind of experiment: Cellular testing of PDK1 kinase inhibitors in PC3 cells (Luminex, phospho-T308-PKB). As to conditions: Homo sapiens, PC-3, 0.5 h, 30 min incubation, serum-free, read-out: IC50 PC3 cells [P-PKB T308]. It counts as cell-based. As for the experimental part:
Method for the Cellular Testing of PDK1 Kinase Inhibitors in PC3 Cells.
The cellular assay for the determination of the PDK1 kinase activity is carried out as a Luminex assay in the 96-well format. PC3 cells are shown at 20,000 cells per well in 100 μl of medium (45% of […]/45% of Ham's F12/10% of FCS) and incubated on the following day for 30 min with a serial dilution of the test substance (7 concentrations) under serum-free conditions. The cells are subsequently lysed using 90 μl of lysis buffer (20 mM tris/HCl pH 8.0, 150 mM NaCl, 1% of NP40, 10% of glycerol, 1% of phosphatase inhibitor I, 1% of phosphatase inhibitor II, 0.1% of protease inhibitor cocktail III, 0.01% of benzonase) per well, and the lysates are separated off from insoluble cell constituents by means of centrifugation through a 96-well filter plate (0.65 μm). The lysates are incubated overnight at 4° C. with shaking with Luminex beads to which an anti-total PKB antibody is coupled. The detection is carried out on the following day by addition of a phospho-T308-PKB antibody and a species-specific peroxidase-labelled secondary antibody. The detection of phospho-T308-PKB is carried out by measurement in a Luminex100 instrument by determination of 100 events per cavity in a measurement time of 60 sec. As pharmacological blank, the signals obtained from cells which have been treated with 10 μM staurosporin are subtracted from all other batches. The control value used for maximum phosphorylation of PKB on T308 are the signals from cells which have only been treated with the solvent (0.3% of DMSO). The values of the batches treated with test substance are calculated therefrom as percentage of control, and IC50 values are determined by means of RS1.

The structures appear in SMILES notation.

For the molecule `COc1ccc(C(C)(O)c2cc(-c3c[nH]c4ncc(-c5cnn(C)c5)cc34)nc(N)n2)cn1` (stereo not shown) [A112, 1-{2-amino-6-[5-(1-methyl-1H-pyrazol-4-yl)-1H-pyrrolo[2,3-b]pyridin-3-yl]-pyrimidin-4-yl}-1-(6-methoxypyridin-3-yl)ethanol], the figures for the IC50 (against PDK1; in assay [1]) were 120 nM and 1300 nM, respectively.
In the case of `CC[C@](O)(c1ccccc1)c1cc(-c2c[nH]c3ncc(-c4cnn(CC(=O)N5CCCCC5)c4)cc23)nc(N)n1` (single isomer, unassigned) [A135], the IC50 was 6.9 nM on PDK1 and 34 nM in assay [1].
